{
  "source": "patent US20110160228A1",
  "about": "“DIHYDRO-ISO-CA-4 AND ANALOGUES: POTENT CYTOTOXICS, INHIBITORS OF TUBULIN POLYMERIZATION” (CENTRE NATIONAL DE LA RECHERCHE SCIENRIFIQUE (CNRS), priority 2008, published 2011)",
  "key": {"[1]": {"biological_target": "T1, tubulin (Sus scrofa, UniProt P02550+P02554)", "T1 construct": "from porcine brain in which it forms 20 to 25% of soluble proteins; from tissue; host or cells: porcine brain", "T1 sequence (P02554 whole entry)": "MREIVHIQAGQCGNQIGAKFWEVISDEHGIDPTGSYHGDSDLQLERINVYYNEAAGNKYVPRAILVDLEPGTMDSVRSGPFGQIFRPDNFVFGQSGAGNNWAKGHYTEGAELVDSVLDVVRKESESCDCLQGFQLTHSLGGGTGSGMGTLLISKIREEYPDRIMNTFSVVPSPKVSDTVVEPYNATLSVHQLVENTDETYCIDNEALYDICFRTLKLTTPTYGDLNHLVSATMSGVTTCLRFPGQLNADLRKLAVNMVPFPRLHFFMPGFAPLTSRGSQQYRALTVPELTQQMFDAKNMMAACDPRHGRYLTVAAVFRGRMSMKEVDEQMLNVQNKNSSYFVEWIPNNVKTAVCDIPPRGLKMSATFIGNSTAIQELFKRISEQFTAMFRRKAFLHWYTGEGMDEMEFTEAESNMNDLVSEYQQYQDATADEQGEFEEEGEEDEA", "T1 sequence (P02550 whole entry)": "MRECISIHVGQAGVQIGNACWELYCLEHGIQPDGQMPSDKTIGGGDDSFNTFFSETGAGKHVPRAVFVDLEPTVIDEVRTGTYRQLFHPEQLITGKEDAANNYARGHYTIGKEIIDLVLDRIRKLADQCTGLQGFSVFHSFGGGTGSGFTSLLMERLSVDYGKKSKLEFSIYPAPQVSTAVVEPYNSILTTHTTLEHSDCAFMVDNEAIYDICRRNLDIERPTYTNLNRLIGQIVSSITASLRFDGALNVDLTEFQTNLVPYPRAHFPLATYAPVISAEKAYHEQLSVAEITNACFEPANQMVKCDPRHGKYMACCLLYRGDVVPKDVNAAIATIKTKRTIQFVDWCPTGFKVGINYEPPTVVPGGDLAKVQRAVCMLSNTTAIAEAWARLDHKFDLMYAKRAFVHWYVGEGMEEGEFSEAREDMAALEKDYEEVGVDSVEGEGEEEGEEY", "test": "Inhibition of tubulin polymerization followed by turbidimetry", "format": "biochemical, porcine", "settings": "for Inhibiting activity of tubulin polymerisation, in words: compared with CA-4 or between the enantiomers; for IC50: tubulin from porcine brain, turbidimetry at 350 nm", "experimental": "These tests were conducted on tubulin purified using the Shelanski method (Shelanski, M. C.; Gaskin, F.; Cantor, C. R. Proc. Natl. Acad. Sci. USA, 1973, 70, 765-768) from porcine brain in which it forms 20 to 25% of soluble proteins. The purification method is based on temperature-dependent assembly-disassembly cycles. Polymerisation of tubulin was followed by turbidimetry using the Gaskin method (Gaskin, F.; Cantor, C. R.; Shelanski, M. L.; J. Bio. Mol., 1974, 89, 737) at a wavelength of 350 nm. The different samples were dissolved in DMSO and incubated 10 minutes at 37° C. then 5 minutes at 0° C.\nThe compound CA-4 and DMSO were used as reference."}, "[2]": {"system": "mouse P-388 leukemia cells", "settings": "cited from earlier work"}, "[3]": {"system": "HCT-15 cells", "settings": "read-out: IC50, cytotoxic effect; cited from earlier work"}, "[4]": {"system": "mouse colon adenocarcinoma 26", "settings": "cited from earlier work"}, "[5]": {"settings": "cited from earlier work"}, "[6]": {"system": "HCT116", "test": "In vitro cytotoxicity, cell viability with CellTiter-Blue", "format": "cell-based", "settings": "Homo sapiens, HCT-116, 72 h", "experimental": "(§1) The biological activity of the compounds of the invention was studied in vitro on 7 human cancer cell lines of different tissular origin (HCT116: coloreactal carcinoma; K562: chronic myeloid leukaemia; B16-F10: melanoma; U87: glioblastoma; H1299: non-small cell lung cancer and MDA-MB 231 and MDA-MB 435: breast cancer). The cells chosen for this study were incubated at 37° C. in the presence of one of the compounds added to the culture medium at different concentrations. All the experiments conducted allowed determination of the extent of toxicity of the tested compound, effect thereof on the cell cycle process and capacity thereof to induce cell death by apoptosis.\n(§2) The cancer cell lines were obtained from the American Type Culture Collection (Rockville, Md., USA) and were cultured following the supplier's recommendations.\nThe cells H1299, U87, MDA-MB231, MDA-MB435 and B16F10 were cultured in Dulbecco Minimal Essential Medium (DMEM) containing 4.5 g/l glucose, supplemented with 10% foetal calf serum and 1% glutamine. The K562 and HCT116 cells were cultured in RPMI 1640 medium containing 10% foetal calf serum and 1% glutamine. All the cell lines were held in culture at 37° C. in a humid atmosphere containing 5% CO2. Cell viability was evaluated using the reagent CellTiter-Blue™ (Promega, Wis., USA) paying heed to the manufacturer's instructions. The cells were seeded in 96-well culture plates to the proportion of 5000 cells per well in 50 μl culture medium. […] All the compounds were tested in triplicate for each defined concentration, and each experiment was repeated 3 times. After 72 hours of incubation, 20 μl resazurin were added to each well. After 2 hours of incubation, the emitted fluorescence was measured at 590 nm after excitation at 560 nm using a fluorescence reader of Victor type (Perkin-Elmer, USA)."}, "[7]": {"system": "MDA-MB 231", "test": "In vitro cytotoxicity, cell viability with CellTiter-Blue", "format": "cell-based", "settings": "Homo sapiens, read-out: IC50 for different cell lines, M231", "experimental": "as §1, §2\nThe cells H1299, U87, MDA-MB231, MDA-MB435 and B16F10 were cultured in Dulbecco Minimal Essential Medium (DMEM) containing 4.5 g/l glucose, supplemented with 10% foetal calf serum and 1% glutamine. […] Cell viability was evaluated using the reagent CellTiter-Blue™ (Promega, Wis., USA) paying heed to the manufacturer's instructions. […] After 2 hours of incubation, the emitted fluorescence was measured at 590 nm after excitation at 560 nm using a fluorescence reader of Victor type (Perkin-Elmer, USA)."}, "[8]": {"system": "EAhy926", "test": "Formation of vascular tubes on Matrigel (anti-vascular activity)", "format": "cell-based, human", "settings": "treatment time of 3 hours at 0.5 μM or 1 μM", "experimental": "The Matrigel™ is deposited in 96-well culture plates to the proportion of 70 μl/well and left to incubate at 37° C. for 45 minutes to allow polymerization thereof. […] After 3 hours of incubation at 37° C., the cells were observed and photographed using an optical microscope of TE2000 type (Nikon, France) equipped with a camera (FIG. 3).\nIn parallel, 15,000 EAhy926 cells in suspension in 150 μl of culture medium were seeded in each of the wells containing Matrigel™. […] The effect of the product was observed and photographed after 3 hours of incubation using an optical microscope (FIG. 4)."}, "[9]": {"settings": "72 hours of incubation, read-out: IC50 for different cell lines, HCT116"}},
  "note": "Read-outs that look alike come from different tables or passages of the source.",
  "data": [
    {"smiles": "COc1ccc(C(C)c2cc(OC)c(OC)c(OC)c2)cc1O", "note": "(single isomer, unassigned) [Compound I-1a]", "values": [
      {"measurement": "Inhibiting activity of tubulin polymerisation, in words", "setting": "[1]", "value": "the same capacity to inhibit tubulin polymerisation"},
      {"measurement": "IC50", "setting": "[1]", "value": "5 to 6", "unit": "µM"}
    ]},
    {"smiles": "COc1ccc(C(C)c2cc(OC)c(OC)c(OC)c2)cc1O", "note": "(single isomer, unassigned) [Compound I-1b]", "values": [
      {"measurement": "Inhibiting activity of tubulin polymerisation, in words", "setting": "[1]", "value": "the same capacity to inhibit tubulin polymerisation"},
      {"measurement": "IC50", "setting": "[1]", "value": "6.7 to 8", "unit": "µM"}
    ]},
    {"smiles": "COc1ccc(C=Cc2cc(OC)c(OC)c(OC)c2)cc1O", "note": "(single isomer, unassigned) [E isomer of CA-4]", "values": [
      {"measurement": "Cytotoxic activity, times lower than the natural Z isomer", "setting": "[2]", "value": "approximately 60 times"}
    ]},
    {"smiles": "COc1ccc(/C=C\\c2cc(OC)c(OC)c(OC)c2)cc1O", "note": "[CA-4, combretastatin A-4]", "values": [
      {"measurement": "IC50", "setting": "[3]", "value": 0.9, "unit": "nM"},
      {"measurement": "Antitumor activity in vivo", "setting": "[4]", "value": "no antitumor activity is observed"},
      {"measurement": "Solubility in water", "setting": "[5]", "value": "low solubility in water"}
    ]},
    {"smiles": "COc1ccc(C(C)c2cc(OC)c(OC)c(OC)c2)cc1O", "note": "(centres unmarked) [Compound I-1]", "values": [
      {"measurement": "IC50", "setting": "[1]", "value": 3.2, "unit": "µM"}
    ]},
    {"smiles": "COc1ccc(C(C)c2cc(OC)c(OC)c(OC)c2)cc1F", "note": "(centres unmarked) [Compound I-9]", "values": [
      {"measurement": "IC50", "setting": "[1]", "value": 6, "unit": "µM"},
      {"measurement": "IC50", "setting": "[6]; [9]", "value": 85, "unit": "nM"}
    ]},
    {"smiles": "COc1ccc(C(C)c2cc(OC)c(OC)c(OC)c2)cc1OC(=O)CN(C)C", "note": "(centres unmarked) [Compound I-14]", "values": [
      {"measurement": "IC50", "setting": "[6]; 72 hours of incubation, in DMSO, read-out: IC50 for different cell lines, HCT116", "value": 50, "unit": "nM"},
      {"measurement": "IC50", "setting": "[6]; 72 hours of incubation, in water, read-out: IC50 for different cell lines, HCT116", "value": 90, "unit": "nM"},
      {"measurement": "IC50", "setting": "[7]; MDA-MB-231, 72 hours of incubation, in DMSO", "value": 50, "unit": "nM"}
    ]},
    {"smiles": "COc1ccc(C(C)c2cc(OC)c(OC)c(OC)c2)cc1OP(=O)(O)O", "note": "(centres unmarked) [Compound I-16]", "values": [
      {"measurement": "IC50", "setting": "[6]; read-out: IC50 for different cell lines, HCT116, 72 hours of incubation, in DMSO", "value": 90, "unit": "nM"},
      {"measurement": "IC50", "setting": "[6]; read-out: IC50 for different cell lines, HCT116, 72 hours of incubation, in water", "value": 100, "unit": "nM"},
      {"measurement": "Number of vascular tubes", "setting": "[8]", "value": "major decrease in the number of vascular tubes"},
      {"measurement": "IC50", "setting": "[7]; MDA-MB-231, 72 h", "value": 50, "unit": "nM"}
    ]},
    {"smiles": "COc1cc(OC)cc(C(C)c2ccc(OC)c(O)c2)c1", "note": "(centres unmarked) [Compound I-18]", "values": [
      {"measurement": "IC50", "setting": "[1]", "value": 11, "unit": "µM"}
    ]},
    {"smiles": "COc1ccc(C(CC#N)c2cc(OC)c(OC)c(OC)c2)cc1O", "note": "(centres unmarked) [Compound I-19]", "values": [
      {"measurement": "IC50", "setting": "[6]; [9]", "value": 80, "unit": "nM"}
    ]},
    {"smiles": "COc1ccc(C(c2cc(OC)c(OC)c(OC)c2)C(F)F)cc1O", "note": "(centres unmarked) [Compound I-20]", "values": [
      {"measurement": "IC50", "setting": "[6]; [9]", "value": 30, "unit": "nM"}
    ]},
    {"smiles": "COc1ccc(C(C)c2cc(OC)c(OC)c(OC)c2)cc1N", "note": "(centres unmarked) [Compound I-21]", "values": [
      {"measurement": "IC50", "setting": "[6]; read-out: IC50 for different cell lines, HCT116, 72 hours of incubation", "value": 60, "unit": "nM"}
    ]},
    {"smiles": "COc1cc(OC)cc(C(C)c2ccc(OC)c(N)c2)c1", "note": "(centres unmarked) [Compound I-38]", "values": [
      {"measurement": "IC50", "setting": "[1]", "value": 11, "unit": "µM"}
    ]}
  ]
}
